Measured values published in US20250009737A1, “COMPOUNDS AND METHODS FOR THE TARGETED DEGRADATION OF ANDROGEN RECEPTOR” (Arvinas Operations, Inc., priority 2023, published 2025).

What was measured:
[1] = tested on: CYP2B6 mRNA; assay: CYP2B6 mRNA induction in cryopreserved human hepatocytes; format: in vitro ADME; conditions: positive control inducer; human hepatocytes
Method: (§1) The induction potential of Compound A on CYP enzymes was assessed in cryopreserved human hepatocytes from three donors. Following treatment for with Compound A at concentrations of 0.03-30 μM for 48 hours, mRNA levels for CYP1A2, 2B6, 2C8, 2C9, 2C19, and 3A4 were determined by semiquantitative real-time polymerase chain reaction (PCR). Test article concentrations during 24-hour incubation were determined. The potential of Compound A to cause direct and time-dependent inhibition (TDI) of the activities of CYP1A2, 2B6, 2C8, 2C9, 2C19, 2D6, and 3A4 was evaluated in pooled human liver microsomes (HLM) at 0.2-15 μM. Probe substrate concentrations around Km were used for direction inhibition and initial TDI assays. For TDI assay, Compound A was pre-incubated with pooled HLM with and without NADPH for 30 minutes prior to incubation with a single concentration of probe substrate.

[2] = tested on: CYP1A2 mRNA; assay: CYP1A2 mRNA induction in cryopreserved human hepatocytes; format: in vitro ADME; conditions: positive control inducer; human hepatocytes
Method: as §1

Compound: CCC1(c2ccccc2)C(=O)NC(=O)NC1=O [Phenobarbital, reference compound]
- CYP2B6 mRNA Fold induction, PC [1]: 14-25 Fold

Compound: COc1ccc2[nH]c([S+]([O-])Cc3ncc(C)c(OC)c3C)nc2c1 (centres unmarked) [Omeprazole, reference compound]
- CYP1A2 mRNA Fold induction, PC [2]: 77-88 Fold
